Source: patent US20220022513A1 (INTERNATIONAL FLAVORS & FRAGRANCES INC., priority 2018, published 2022)

Tests used:
Assay type in all cases: in vivo
[1] = Descriptive sensory evaluation (taste modulation) of sebacic acid in different applications
Description: Descriptive sensory evaluations were carried out using different amounts of sebacic acid in different applications.

[2] = Sensory evaluation of sebacic acid and traumatic acid in sweetened milk; conditions: for sweetness and mouthfeel of sweetened milk: 2 ppm (each) in sweetened milk; for Taste Evaluation: 2 ppm (each) in sweetened milk (2% fat milk with 2% sucrose), versus base
Description: Sweetened milk (2% fat milk with 2% sucrose) was prepared and used as a base solution (“base”).

[3] = Sensory evaluation of sebacic acid at different amounts in sugar water
Description: Sugar water (4% sucrose in drinking water) was prepared and used as a base solution.

Compound | Taste Evaluation ([1]; 7.5 ppm in 3% Sugar-Sweetened Full Fat Milk) | Taste Evaluation ([1]; 7.5 ppm in Mixed Berry Yogurt Smoothie (1% Fat, 9% Sugar, 3% Protein)) | Taste Evaluation ([1]; 15 ppm in Strawberry Flavored Yogurt (5% Sugar, 0.4% Fat, 8.7 Grams Protein)) | Taste Evaluation ([1]; 40 ppm in 3% Sugar + 0.05% Citric Acid Water Solution) | Taste Evaluation ([1]; 40 ppm in Water, compared to same application without sebacic acid) | sweetness and mouthfeel of sweetened milk [2] | Taste Evaluation [2] | Taste Evaluation ([3]; 0.02 ppm in sugar water (4% sucrose in drinking water)) | Taste Evaluation ([3]; 1000 ppm in sugar water (4% sucrose in drinking water))
O=C(O)CCCCCCCCC(=O)O [Sebacic acid, sebacic acid] | Increases fatty perception | Cuts sour end, increased | Sweet up front, more | Fatty and oily | Fatty and oily | increased sweetness and mouthfeel | Sweeter and more mouthfeel | Slight sweet and mouthfeel | Strong sweet and mouthfeel
O=C(O)/C=C/CCCCCCCCC(=O)O [Traumatic Acid, traumatic acid] | – | – | – | – | – | increased sweetness and mouthfeel | Sweeter and more mouthfeel | – | –
